Consider 40 compounds from paper PMC6044914 (ACS Omega, 2017).

In data set [1] the test system is M. tuberculosis H37Rv (London Pride). Kind of data set: microbe, parasite or virus in culture. The conditions noted are these: for activity against M. tuberculosis (in words): SAR discussion. Type of data set: cell-based, Mycobacterium tuberculosis.
In data set [2] the test system is Vero cells. Conditions: for cytotoxicity (in words): Vero cells.
The mark [3] stands for this setting: Mycobacterium tuberculosis, H37RV, 120 h.
Setting [4] is: Mycobacterium tuberculosis, H37RV.

≈ marks a conversion by molar mass, not a printed value. Read-outs that look alike come from different tables or passages of the source.

With `COc1ccccc1C(=O)Nc1ncc([N+](=O)[O-])s1` [compound 17, 2-Methoxy-N-(5-nitrothiazol-2-yl)benzamide], in data set [1] (setting [3]), the MIC was > 20 µM. The “activity against M. tuberculosis (in words)” value (“activity … (in words)” for short) in data set [1] is on record as “no activity”.
As to `Cc1cnc(NC(=O)c2ccccn2)s1` [compound 48, N-(5-Methylthiazol-2-yl)picolinamide], in data set [1] (setting [4]), the MIC is > 20 µM. Also, the “activity … (in words)” value in data set [1] was “inactive”. Also, the “TC50” value in data set [2] (African green monkey) worked out at 12 µM.
Regarding `Cn1ccnc1C(=O)Nc1ncc([N+](=O)[O-])s1` [compound 40, 1-Methyl-N-(5-nitrothiazol-2-yl)-1H-imidazole-2-carboxamide], in data set [1] (setting [4]), the MIC was > 20 µM.
As for `CCC(C)(C)C(=O)Nc1ccccc1C(=O)Nc1ncc([N+](=O)[O-])s1` [compound 9, 2-(2,2-Dimethylbutanamido)-N-(5-nitrothiazol-2-yl)benzamide], the MIC in data set [1] (setting [3]) was 17 ± 4.9 µM (≈ 6.16 µg/mL). In addition, the “activity … (in words)” value in data set [1] is recorded as “showed activity”. For the same compound, in data set [2] (African green monkey), the “TC50” value is 4.1 µM.
On to `O=C(Nc1ncc([N+](=O)[O-])s1)c1nc2ccccc2s1` [compound 44, N-(5-Nitrothiazol-2-yl)benzo[d]thiazole-2-carboxamide], for which, in data set [1] (setting [4]), the MIC is > 20 µM.
Turning to `CCC(C)(C)C(=O)Oc1cc(N2CCOCC2)ccc1C(=O)Nc1ncc([N+](=O)[O-])s1` [compound 14, 5-Morpholino-2-((5-nitrothiazol-2-yl)carbamoyl)phenyl 2,2-dimethylbutanoate], in data set [1] (setting [3]), the MIC is > 20 µM. Besides, the “activity … (in words)” value in data set [1] was “no activity”. Moreover, the “TC50” value in data set [2] (African green monkey) is 12 µM.
On to `O=C(Nc1ncc([N+](=O)[O-])s1)c1nccs1` [compound 33, N-(5-Nitrothiazol-2-yl)thiazole-2-carboxamide], for which, in data set [1] (setting [4]), the MIC is > 20 µM.
Take `COc1ccc(C(=O)Nc2ncc([N+](=O)[O-])s2)nc1` [compound 21, 5-Methoxy-N-(5-nitrothiazol-2-yl)picolinamide]: the MIC in data set [1] (setting [3]) was found to be 5.5 ± 2.1 µM (≈ 1.54 µg/mL). For the same compound, in data set [2] (African green monkey), the “TC50” value stood at 4.3 µM.
In data set [1] (setting [3]), `COc1ccnc(C(=O)Nc2ncc([N+](=O)[O-])s2)c1` [compound 20, 4-Methoxy-N-(5-nitrothiazol-2-yl)picolinamide] returned an MIC of 5.6 ± 4.2 µM (≈ 1.57 µg/mL). For the same compound, the “TC50” value in data set [2] (African green monkey) stood at 11 µM.
In data set [1] (setting [4]), `Cc1nc(NC(=O)c2ccccn2)sc1[N+](=O)[O-]` [compound 50, N-(4-Methyl-5-nitrothiazol-2-yl)picolinamide] registered an MIC of 1.5 ± 0.6 µM (≈ 0.396 µg/mL). In addition, the “activity … (in words)” value in data set [1] is listed as “some activity”. In addition, in data set [2] (African green monkey), the “TC50” value was 4.2 µM. Moreover, the “cytotoxicity (in words)” value in data set [2] was “cytotoxicity”.
Consider `O=C(Nc1ncc([N+](=O)[O-])s1)c1cc(O)ccc1O` [compound 15, 2,5-Dihydroxy-N-(5-nitrothiazol-2-yl)benzamide], for which, in data set [1] (setting [3]), the MIC was > 20 µM. Also, the “activity … (in words)” value in data set [1] is reported as “no activity”. In addition, the “TC50” value in data set [2] (African green monkey) was found to be 13 µM.
Consider `CCC(C)(C)C(=O)Oc1cccnc1C(=O)Nc1ncc([N+](=O)[O-])s1` [compound 23, 2-((5-Nitrothiazol-2-yl)carbamoyl)pyridin-3-yl 2,2-dimethylbutanoate], for which the MIC in data set [1] (setting [3]) was 12 ± 1 µM (≈ 4.37 µg/mL). Further, the “TC50” value in data set [2] (African green monkey) came to 21 µM.
Regarding `Nc1ccccc1C(=O)Nc1ncc([N+](=O)[O-])s1` [compound 5, 2-Amino-N-(5-nitrothiazol-2-yl)benzamide], the MIC in data set [1] (setting [3]) is > 20 µM. Also, the “activity … (in words)” value in data set [1] was “no activity”. Moreover, the “TC50” value in data set [2] (African green monkey) came out at 31 µM.
On to `O=C(Nc1ncc([N+](=O)[O-])s1)c1cc(F)ccc1O` [compound 11, 5-Fluoro-2-hydroxy-N-(5-nitrothiazol-2-yl)benzamide], for which the MIC in data set [1] (setting [3]) was > 20 µM. Moreover, in data set [1], the “activity … (in words)” value is “no activity”.
Regarding `O=C(Nc1ncc([N+](=O)[O-])s1)c1ccncn1` [compound 30, N-(5-Nitrothiazol-2-yl)pyrimidine-4-carboxamide], the MIC in data set [1] (setting [4]) was > 20 µM. In addition, in data set [1], the “activity … (in words)” value is given as “loss of activity”.
Consider `O=C(Nc1ncc([N+](=O)[O-])s1)c1ncco1` [compound 41, N-(5-Nitrothiazol-2-yl)oxazole-2-carboxamide], for which, in data set [1] (setting [4]), the MIC was > 20 µM.
For the compound `CC(=O)Nc1ncc([N+](=O)[O-])s1` [compound 26, N-(5-Nitrothiazol-2-yl)acetamide], the MIC in data set [1] (setting [4]) was > 20 µM. In data set [1], the “activity … (in words)” value was “loss of activity”.
With `CC(=O)Oc1ccccc1C(=O)Nc1nccs1` [compound 45, 2-(Thiazol-2-ylcarbamoyl)phenyl Acetate], the MIC in data set [1] (setting [4]) was > 20 µM. In addition, in data set [1], the “activity … (in words)” value is listed as “eliminated all activity”. For the same compound, the “TC50” value in data set [2] (African green monkey) was >50 µM.
As to `CC(=O)Nc1ccccc1C(=O)Nc1ncc([N+](=O)[O-])s1` [compound 7, 2-Acetamido-N-(5-nitrothiazol-2-yl)benzamide], the MIC in data set [1] (setting [3]) was > 20 µM. Besides, the “activity … (in words)” value in data set [1] is “no activity”.
`CNc1ccccc1C(=O)Nc1ncc([N+](=O)[O-])s1` [compound 6, 2-(Methylamino)-N-(5-nitrothiazol-2-yl)benzamide]: the MIC in data set [1] (setting [3]) was > 20 µM. For the same compound, the “activity … (in words)” value in data set [1] is “no activity”. Also, the “TC50” value in data set [2] (African green monkey) was 15 µM.
As for `CO[C@H]1/C=C/O[C@@]2(C)Oc3c(C)c(O)c4c(O)c(c(/C=N/N5CCN(C)CC5)c(O)c4c3C2=O)NC(=O)/C(C)=C\C=C\[C@H](C)[C@H](O)[C@@H](C)[C@@H](O)[C@@H](C)[C@H](OC(C)=O)[C@@H]1C` [rifampicin, reference compound], the MIC in data set [1] (setting [3]) was 0.004 µM (≈ 0.00329 µg/mL). In addition, the “TC50” value in data set [2] (African green monkey) was >50 µM.
Consider `O=[N+]([O-])c1cnc(NCc2ccccn2)s1` [compound 56, 5-Nitro-N-(pyridin-2-ylmethyl)thiazol-2-amine], for which the “activity … (in words)” value in data set [1] is “inactive”.
Turning to `O=C(Nc1nc(-c2ccccn2)c([N+](=O)[O-])s1)c1ccccn1` [compound 53, N-(5-Nitro-4-(pyridin-2-yl)thiazol-2-yl)picolinamide], in data set [1] (setting [4]), the MIC was 8.5 ± 2.1 µM (≈ 2.78 µg/mL). Also, the “activity … (in words)” value in data set [1] is given as “some activity”. Further, in data set [2] (African green monkey), the “TC50” value came out at 6.4 µM. The “cytotoxicity (in words)” value in data set [2] is recorded as “cytotoxicity”.
As to `O=C(Nc1ncc([N+](=O)[O-])s1)c1ccc(N2CCOCC2)cn1` [compound 25, 5-Morpholino-N-(5-nitrothiazol-2-yl)picolinamide], the MIC in data set [1] (setting [3]) is > 20 µM. The “activity … (in words)” value in data set [1] is “inactive”. For the same compound, the “TC50” value in data set [2] (African green monkey) came out at 11 µM.
Compound `O=C(Nc1ncc(C(F)(F)F)s1)c1ccccn1` [compound 49, N-(5-(Trifluoromethyl)thiazol-2-yl)picolinamide] gave an MIC in data set [1] (setting [4]) of 5.3 ± 0.2 µM (≈ 1.45 µg/mL). In addition, the “activity … (in words)” value in data set [1] is “some activity”. For the same compound, the “TC50” value in data set [2] (African green monkey) is 0.8 µM. Also, the “cytotoxicity (in words)” value in data set [2] is “cytotoxicity”.
In the case of `O=C(Nc1ncc([N+](=O)[O-])s1)C1CC1` [compound 27, N-(5-nitrothiazol-2-yl)cyclopropanecarboxamide], in data set [1] (setting [4]), the MIC was > 20 µM. For the same compound, in data set [1], the “activity … (in words)” value was “loss of activity”.
Turning to `O=C(Nc1ncc([N+](=O)[O-])s1)c1ccncc1` [compound 35, N-(5-Nitrothiazol-2-yl)isonicotinamide], the MIC in data set [1] (setting [4]) is > 20 µM.
The same measure, in the same setting: the value for `O=C(Nc1ncc([N+](=O)[O-])s1)c1cccnc1` [compound 34, N-(5-Nitrothiazol-2-yl)nicotinamide] was > 20 µM.
Turning to `Cc1nc(NC(=O)c2ccccc2O)sc1[N+](=O)[O-]` [compound 46, 2-Hydroxy-N-(4-methyl-5-nitrothiazol-2-yl)benzamide], in data set [1] (setting [4]), the MIC was > 20 µM. Moreover, the “activity … (in words)” value in data set [1] is “inactive”. Further, the “TC50” value in data set [2] (African green monkey) stood at 5.2 µM.
Regarding “3-Isobutoxy-N-(5-nitrothiazol-2-yl)picolinamide [compound 22]”, in data set [1] (Table 1, […], average ± SD of two independent experiments), the “MIC” value was found to be 16 ± 6.4 µM. Moreover, in data set [2], the “TC50” value amounted to 8.9 µM.
With `CCC(C)(C)C(=O)Nc1cccnc1C(=O)Nc1ncc([N+](=O)[O-])s1` [compound 18, 3-(2,2-Dimethylbutanamido)-N-(5-nitrothiazol-2-yl)picolinamide], in data set [1], the “improvement in activity relative to 1” value is given as 10 fold and the “activity … (in words)” value is “showed activity”. This compound yielded an MIC in data set [1] (setting [3]) of 1.4 ± 0.6 µM (≈ 0.509 µg/mL). Further, in data set [2] (African green monkey), the “TC50” value was 0.9 µM.
On to `O=C(Nc1ncc([N+](=O)[O-])s1)C1CCCCC1O` (stereo not drawn) [compound 29, 2-Hydroxy-N-(5-nitrothiazol-2-yl)cyclohexane-1-carboxamide], for which, in data set [1] (setting [4]), the MIC was > 20 µM.
`Cc1cnc(C(=O)Nc2ncc([N+](=O)[O-])s2)s1` [compound 43, 5-Methyl-N-(5-nitrothiazol-2-yl)thiazole-2-carboxamide]: in data set [1] (setting [4]), the MIC was > 20 µM.
Turning to `O=C(Nc1ncc([N+](=O)[O-])s1)N1CCCCC1` [compound 31, N-(5-Nitrothiazol-2-yl)piperidine-1-carboxamide], the MIC in data set [1] (setting [4]) was > 20 µM.
The same measure, in the same setting: to `O=C(Nc1ncc([N+](=O)[O-])s1)c1ccon1` [compound 42, N-(5-Nitrothiazol-2-yl)isoxazole-3-carboxamide] belongs > 20 µM; to `O=C(Nc1ncc([N+](=O)[O-])s1)c1cnccn1` [compound 32, N-(5-Nitrothiazol-2-yl)pyrazine-2-carboxamide], > 20 µM.
Consider `O=[N+]([O-])c1cnc(NCc2ccccc2O)s1` [compound 55, 2-(((5-Nitrothiazol-2-yl)amino)methyl)phenol], for which the “activity … (in words)” value in data set [1] was “inactive”.
With `O=C(Nc1ncc([N+](=O)[O-])s1)NC1CCCCC1` [compound 38, 1-Cyclohexyl-3-(5-nitrothiazol-2-yl)urea], in data set [1] (setting [4]), the MIC is > 20 µM.
In the case of `O=[N+]([O-])c1cnc(NS(=O)(=O)c2ccccc2O)s1` [compound 54, 2-Hydroxy-N-(5-nitrothiazol-2-yl)benzenesulfonamide], in data set [1], the “activity … (in words)” value is “inactive”.
For `O=C(Nc1ccccn1)Nc1ncc([N+](=O)[O-])s1` [compound 39, 1-(5-Nitrothiazol-2-yl)-3-(pyridin-2-yl)urea], the MIC in data set [1] (setting [4]) is > 20 µM.
